The test has as its system L1210 leukemia ip in BDF1 mice, survival T/C. The experiment in a line: NCI In Vivo Anticancer Drug Screen. Data for tumor model L1210 Leukemia (intraperitoneal) in B6D2F1 (BDF1) mice. The settings on record: higher = longer survival. The procedure, abridged: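 Survival endpoint. Drug-treated group vs vehicle group, expressed as T divided by C. Tumor passaged by transplantation.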

Where “and” joins values, the source holds several entries; their conditions need not be identical. Identical values can stand only once. Inconclusive results and toxic doses are left out.

As to `CC1(/C=N/Nc2nnc(N/N=C/C3(C)CCC=CO3)c3ccccc23)CCC=CO1` (configuration not stated), the T/C (endpoint: mean survival time, dose: 50.0 mg/kg/injection, schedule: Q01DX001 (ip), vehicle: carboxymethylcellulose (CMC)) was 106 % of control; the T/C (endpoint: mean survival time, dose: 100.0 mg/kg/injection, schedule: Q01DX001 (ip), vehicle: carboxymethylcellulose (CMC)) was 104 % of control; the T/C (endpoint: mean survival time, dose: 200.0 mg/kg/injection, schedule: Q01DX001 (ip), vehicle: carboxymethylcellulose (CMC)) was 87 % of control.

In the case of `COc1c(F)c(F)c(Oc2c(F)c(F)c(OC)c(F)c2F)c(F)c1F`, the T/C by setting is: (endpoint: mean survival time, dose: 100.0 mg/kg/injection, schedule: Q01DX001 (ip), vehicle: Klucel (hydroxypropylcellulose) (HPC)) 99 % of control; (endpoint: mean survival time, dose: 200.0 mg/kg/injection, schedule: Q01DX001 (ip), vehicle: Klucel (hydroxypropylcellulose) (HPC)) 92 % of control; (endpoint: mean survival time, dose: 400.0 mg/kg/injection, schedule: Q01DX001 (ip), vehicle: Klucel (hydroxypropylcellulose) (HPC)) 94 % of control.

Turning to `COc1cc2cc3c4cc(OC)c(OC)cc4cc[n+]3c(C)c2cc1OC`, the T/C by setting is: (endpoint: mean survival time, dose: 12.0 mg/kg/injection, schedule: Q01DX009 (ip), vehicle: saline) 100 % of control; (endpoint: mean survival time, dose: 12.5 mg/kg/injection, schedule: Q01DX009 (ip), vehicle: water) 117 % of control; (endpoint: mean survival time, dose: 16.0 mg/kg/injection, schedule: Q03HX008 (ip), vehicle: saline) 122 % of control; (endpoint: mean survival time, dose: 16.0 mg/kg/injection, schedule: Q03HX016 (ip), vehicle: saline) 122 % of control; (endpoint: mean survival time, dose: 25.0 mg/kg/injection, schedule: Q01DX009 (ip), vehicle: saline) 117 % of control; (endpoint: mean survival time, dose: 32.0 mg/kg/injection, schedule: Q03HX008 (ip), vehicle: saline) 118 % of control. The T/C is, setting by setting: (endpoint: mean survival time, dose: 32.0 mg/kg/injection, schedule: Q03HX024 (ip), vehicle: saline) 124 % of control; (endpoint: mean survival time, dose: 50.0 mg/kg/injection, schedule: Q01DX009 (ip), vehicle: saline sonified) 115 % of control; (endpoint: mean survival time, dose: 50.0 mg/kg/injection, schedule: Q04DX002 (ip), vehicle: saline) 120 % of control; (endpoint: mean survival time, dose: 50.0 mg/kg/injection, schedule: Q04DX003 (ip), vehicle: saline) 116 % of control; (endpoint: mean survival time, dose: 64.0 mg/kg/injection, schedule: Q03HX008 (ip), vehicle: saline) 122 % of control; (endpoint: mean survival time, dose: 100.0 mg/kg/injection, schedule: Q01DX009 (ip), vehicle: saline sonified) 115 % of control. Further, the T/C reads like this: (endpoint: mean survival time, dose: 100.0 mg/kg/injection, schedule: Q01DX009 (ip), vehicle: saline) 110 % of control and 119 % of control; (endpoint: mean survival time, dose: 100.0 mg/kg/injection, schedule: Q04DX002 (ip), vehicle: saline) 123 % of control; (endpoint: mean survival time, dose: 100.0 mg/kg/injection, schedule: Q04DX003 (ip), vehicle: saline) 108 % of control; (endpoint: mean survival time, dose: 128.0 mg/kg/injection, schedule: Q01DX001 (ip), vehicle: saline) 117 % of control; (endpoint: mean survival time, dose: 128.0 mg/kg/injection, schedule: Q01DX009 (ip), vehicle: saline) 120 % of control; (endpoint: mean survival time, dose: 128.0 mg/kg/injection, schedule: Q03HX008 (ip), vehicle: saline) 124 % of control. The T/C (endpoint: mean survival time, dose: 128.0 mg/kg/injection, schedule: Q04DX003 (ip), vehicle: saline) is 114 % of control; the T/C (endpoint: mean survival time, dose: 128.0 mg/kg/injection, schedule: Q08DX002 (ip), vehicle: saline) was 122 % of control; the T/C (endpoint: mean survival time, dose: 200.0 mg/kg/injection, schedule: Q01DX009 (ip), vehicle: saline sonified) is 112 % of control; the T/C (endpoint: mean survival time, dose: 200.0 mg/kg/injection, schedule: Q04DX002 (ip), vehicle: saline) is 120 % of control; the T/C (endpoint: mean survival time, dose: 256.0 mg/kg/injection, schedule: Q01DX001 (ip), vehicle: saline) is 117 % of control; the T/C (endpoint: mean survival time, dose: 256.0 mg/kg/injection, schedule: Q08DX002 (ip), vehicle: saline) is 118 % of control. The T/C is, setting by setting: (endpoint: mean survival time, dose: 400.0 mg/kg/injection, schedule: Q01DX009 (ip), vehicle: water) 151 % of control; (endpoint: mean survival time, dose: 400.0 mg/kg/injection, schedule: Q04DX002 (ip), vehicle: saline) 116 % of control and 118 % of control; (endpoint: mean survival time, dose: 400.0 mg/kg/injection, schedule: Q04DX003 (ip), vehicle: saline) 120 % of control; (endpoint: mean survival time, dose: 512.0 mg/kg/injection, schedule: Q01DX001 (ip), vehicle: saline) 119 % of control; (endpoint: mean survival time, dose: 512.0 mg/kg/injection, schedule: Q08DX002 (ip), vehicle: saline) 120 % of control; (endpoint: mean survival time, dose: 1024.0 mg/kg/injection, schedule: Q04DX003 (ip), vehicle: saline) 106 % of control. The T/C runs as follows: (endpoint: median survival time, dose: 16.0 mg/kg/injection, schedule: Q03HX008 (ip), vehicle: saline) 122 % of control; (endpoint: median survival time, dose: 16.0 mg/kg/injection, schedule: Q03HX024 (ip), vehicle: saline) 122 % of control; (endpoint: median survival time, dose: 32.0 mg/kg/injection, schedule: Q01DX009 (ip), vehicle: saline) 122 % of control; (endpoint: median survival time, dose: 50.0 mg/kg/injection, schedule: Q01DX009 (ip), vehicle: saline) 105 % of control and 109 % of control; (endpoint: median survival time, dose: 62.5 mg/kg/injection, schedule: Q01DX009 (ip), vehicle: saline) 120 % of control; (endpoint: median survival time, dose: 64.0 mg/kg/injection, schedule: Q01DX001 (ip), vehicle: saline) 122 % of control. For the same compound, the T/C (endpoint: median survival time, dose: 64.0 mg/kg/injection, schedule: Q01DX009 (ip), vehicle: saline) was 122 % of control; the T/C (endpoint: median survival time, dose: 64.0 mg/kg/injection, schedule: Q01DX009 (oral), vehicle: saline) was 100 % of control; the T/C (endpoint: median survival time, dose: 64.0 mg/kg/injection, schedule: Q01DX009 (sc), vehicle: saline) is 100 % of control; the T/C (endpoint: median survival time, dose: 64.0 mg/kg/injection, schedule: Q03HX008 (ip), vehicle: saline) was 122 % of control; the T/C (endpoint: median survival time, dose: 64.0 mg/kg/injection, schedule: Q04DX003 (ip), vehicle: saline) was 122 % of control; the T/C (endpoint: median survival time, dose: 64.0 mg/kg/injection, schedule: Q08DX002 (ip), vehicle: saline) is 111 % of control. The T/C is 120 % of control (endpoint: median survival time, dose: 125.0 mg/kg/injection, schedule: Q01DX009 (ip), vehicle: saline); 122 % of control (endpoint: median survival time, dose: 128.0 mg/kg/injection, schedule: Q01DX001 (ip), vehicle: saline); 122 % of control (endpoint: median survival time, dose: 128.0 mg/kg/injection, schedule: Q01DX009 (ip), vehicle: saline); 105 % of control (endpoint: median survival time, dose: 128.0 mg/kg/injection, schedule: Q01DX009 (oral), vehicle: saline); 100 % of control (endpoint: median survival time, dose: 128.0 mg/kg/injection, schedule: Q01DX009 (sc), vehicle: saline); 122 % of control (endpoint: median survival time, dose: 128.0 mg/kg/injection, schedule: Q04DX003 (ip), vehicle: saline). Moreover, the T/C (endpoint: median survival time, dose: 128.0 mg/kg/injection, schedule: Q08DX002 (ip), vehicle: saline) was 122 % of control; the T/C (endpoint: median survival time, dose: 256.0 mg/kg/injection, schedule: Q01DX009 (oral), vehicle: saline) was 111 % of control; the T/C (endpoint: median survival time, dose: 256.0 mg/kg/injection, schedule: Q01DX009 (sc), vehicle: saline) was 94 % of control; the T/C (endpoint: median survival time, dose: 256.0 mg/kg/injection, schedule: Q08DX002 (ip), vehicle: saline) was 122 % of control; the T/C (endpoint: median survival time, dose: 512.0 mg/kg/injection, schedule: Q01DX001 (ip), vehicle: saline) is 122 % of control; the T/C (endpoint: median survival time, dose: 512.0 mg/kg/injection, schedule: Q01DX009 (oral), vehicle: saline) is 100 % of control. Moreover, the T/C reads like this: (endpoint: median survival time, dose: 512.0 mg/kg/injection, schedule: Q01DX009 (sc), vehicle: saline) 100 % of control; (endpoint: median survival time, dose: 512.0 mg/kg/injection, schedule: Q04DX003 (ip), vehicle: saline) 122 % of control; (endpoint: median survival time, dose: 1024.0 mg/kg/injection, schedule: Q01DX009 (oral), vehicle: saline) 88 % of control; (endpoint: median survival time, dose: 1024.0 mg/kg/injection, schedule: Q01DX009 (sc), vehicle: saline) 100 % of control; (endpoint: median survival time, dose: 1024.0 mg/kg/injection, schedule: Q08DX002 (ip), vehicle: saline) 122 % of control; (endpoint: median survival time, dose: 1600.0 mg/kg/injection, schedule: Q01DX009 (ip), vehicle: saline) 90 % of control.

As to `Cc1ccc(CC(=O)c2c(C)[nH]c3ccccc23)cc1C`, the T/C reads like this: (endpoint: mean survival time, dose: 50.0 mg/kg/injection, schedule: Q01DX001 (ip), vehicle: saline) 108 % of control; (endpoint: mean survival time, dose: 100.0 mg/kg/injection, schedule: Q01DX001 (ip), vehicle: saline) 96 % of control; (endpoint: mean survival time, dose: 200.0 mg/kg/injection, schedule: Q01DX001 (ip), vehicle: saline) 96 % of control; (endpoint: mean survival time, dose: 400.0 mg/kg/injection, schedule: Q01DX001 (ip), vehicle: saline) 96 % of control.

With `O=C(O)c1cccc(N2C(=O)C=CC2=O)c1`, the T/C by setting is: (endpoint: mean survival time, dose: 25.0 mg/kg/injection, schedule: Q04DX002 (ip), vehicle: Klucel (hydroxypropylcellulose) (HPC)) 101 % of control; (endpoint: mean survival time, dose: 50.0 mg/kg/injection, schedule: Q04DX002 (ip), vehicle: Klucel (hydroxypropylcellulose) (HPC)) 101 % of control.
